Laboratory results: US7514579B2, “Boronic chalcone derivatives and uses thereof” (Johns Hopkins University, priority 2002, dated 2009)

Key:
Conditions in all cases: MTT growth inhibition, 96 hours exposure
[1] = tested on: MCF-12A normal breast epithelial cell line; assay: MTT survival assay, MCF-12A cells; assay type: cell-based, human
Protocol: (§1) The cytotoxicity of the boronic chalcone analogs and carboxylic acid chalcones were evaluated and compared by MTT survival assays of human breast cancer MDA-MB-435, MDA-MB-231, Wt-MCF7, and MCF-10A cells treated at different concentrations of the analogs.
(§2) Human breast cancer MDA-MB-231 (estrogen independent) and wtMCF7 (estrogen dependent) human breast cancer cells were maintained in DMEM medium supplemented with 5% fetal bovine serum, 2 mM glutamine, and 100 units/mL penicillin/streptomycin. MDA-MB-435 (estrogen independent) human breast cancer cells were maintained in IMEM medium supplemented with 5% fetal bovine serum and 2 mM glutamine. Each cell line used has unique growth characteristics spanning the spectrum of tumor invasiveness, differentiation and estrogen dependence. Normal breast epithelial cell lines, MCF-10A and MCF-12A, were maintained in 5% and 10% horse serum in DMEM:Ham's F12 media, respectively, supplemented with 2 mM glutamine, 100 units/mL penicillin/streptomycin, 0.02 μg/mL EGF, 0.01 mg/mL insulin, and 0.1 μg/mL cholera toxin.
(§3) Cells were incubated at 37° C. in a 5% CO2 atmosphere. The MTT colorimetric assay was used to determine growth inhibition (Mosmann, T., J. Immunol. Methods, 1983, 65, 55-63). Cells were plated in 96-well plates and allowed to attach for 24 hours. Chalcone derivatives based on compounds 20 and 21 below were dissolved in DMSO at 10 mM concentrations. Cells were expose in quadruplicate well to chalcone concentrations of 0.5-100 µM for 96 hours. After 96 hours the media was aspirated, and 100 µL of 1 mg/mL MTT solution (Sigma Chemical Co.) diluted in serum free media was added to each well. After 4 hours of incubation, the MTT solution was removed and 200 µL of 1:1 (v/v) solution of DMSO:ethanol was added to each well to dissolve formazan crystals. The absorbance at A540nm was determined on a plate reader. IC50 values were determined from log plots of percent of control vs. concentration. Each compound was assayed twice in quadruplicate. Analogs 3g and 9 have been previously described (Stoll R., et al., supra; Kussie, P. H., et al., supra) and were included for comparative purposes.

[2] = tested on: MDA-MB-435 (estrogen independent) human breast cancer cells; assay: MTT survival assay, MDA-MB-435 cells; assay type: cell-based
Protocol: as §1, §2, §3

[3] = tested on: MDA-MB-231 (estrogen independent) human breast cancer cells; assay: MTT survival assay, MDA-MB-231 cells; assay type: cell-based
Protocol: as §1, §2, §3

[4] = tested on: wtMCF7 (estrogen dependent) human breast cancer cells; assay: MTT survival assay, Wt-MCF7 cells; assay type: cell-based
Protocol: as §1, §2, §3

[5] = tested on: MCF-10A normal breast epithelial cell line; assay: MTT survival assay, MCF-10A cells; assay type: cell-based, human
Protocol: as §1, §2, §3

| Compound | IC50 [1] [µM] | IC50 [2] [µM] | IC50 [3] [µM] | IC50 [4] [µM] | IC50 [5] [µM] |
| --- | --- | --- | --- | --- | --- |
| O=C(/C=C/c1ccc(I)cc1)c1ccc(B(O)O)cc1 [Compound 3a] | 63 | 10 | 8.8 | 7 | 75 |
| O=C(O)COc1ccc(C(=O)/C=C/c2ccc(Cl)c(Cl)c2)cc1 [Compound 3g, reference compound] | 15 | 9 | 9 | 13 | 13 |
| O=C(O)COc1ccc(C(=O)/C=C/c2ccc(I)cc2)cc1 [Compound 3f] | 38 | 18 | 44 | 9 | 44 |
| O=C(/C=C/c1ccc(Cl)c(Cl)c1)c1ccc(B(O)O)cc1 [Compound 8] | 15 | 4 | 8 | 5.5 | 18 |
| O=C(/C=C/c1ccc(F)c(Cl)c1)c1ccc(B(O)O)cc1 [Compound 3c] | 22 | 16 | 8.5 | 6 | 25 |
| O=C(O)COc1ccc(C(=O)/C=C/c2ccc(Cl)c(Cl)c2)cc1 [Compound 9, reference compound] | 28 | 13 | 18 | 15 | 12 |
| O=C(/C=C/c1ccc(Cl)c(Cl)c1)c1ccc(B(O)O)cc1 [Compound 3b] | 11 | 3.5 | 9.5 | 5 | 18 |
| O=C(/C=C/c1ccc(I)cc1)c1ccc(O)cc1 [Compound 6] | 30 | 4.5 | 8 | 7 | 15 |
| O=C(/C=C/c1ccc(F)c(Br)c1)c1ccc(B(O)O)cc1 [Compound 3e] | 38 | 8.8 | 9.5 | 8.5 | 17 |
| O=C(/C=C/c1ccc(I)cc1)c1ccc(OCB(O)O)cc1 [Compound 7] | 100 | 18 | 11 | 9.5 | 38 |
| O=C(/C=C/c1ccc(F)c(F)c1)c1ccc(B(O)O)cc1 [Compound 3d] | 39 | 8.8 | 8.8 | 7.8 | 18 |
